{
  "source": "patent EP1360959A1",
  "about": "“Use of 8-prenylflavanones for anti-angiogenesis therapy and for fibrinolytic therapy” (Schering Aktiengesellschaft, priority 2002, dated 2003)",
  "format_in_all_cases": "cell-based, Bovine",
  "key": {"tPA [1]": {"test_system": "tPA", "test": "Zymography of cell extracts, tPA activity, BME cells", "method": "(§1) Confluent monolayers of BME or BAE cells in 35mm gelatin-coated tissue culture dishes were washed twice with serum-free medium, and were treated with (±)-8-Prenylnaringenin in the absence or presence of bFGF or VEGF in serum-free medium containing Trasylol (200 Kallikrein Inhibitory Units/ml). 15 hours later, cell extracts were prepared and analyzed by zymography and reverse zymography as previously described (Vassalli et al., 1984, J. Exp. Med. 159: 1653-1668).\n(§2) Cell extracts (CE) and culture supernatants (Sup) prepared from BME cells incubated with (±)-8-prenylnaringenin at the indicated concentrations in the absence or presence of bFGF (10ng/ml) for 15 hours, were subjected to zymography (uPA, tPA and tPA/PAI-1 complex activities) and reverse zymography (PAI-1 activity)"}, "tPA [2]": {"test_system": "tPA", "test": "Zymography of cell extracts, tPA activity, BAE cells", "method": "as §1\nas §2, with “BAE” for “BME”, “(3ng/ml)” for “(10ng/ml)”, “activity). The second panel marked CE is a longer incubation of the gel shown in the top panel.” for “activity)”"}, "PAI-1 [3]": {"test_system": "PAI-1", "test": "Reverse zymography, PAI-1 activity, BME cells", "conditions": "15 hours, serum-free", "method": "as §1, §2"}, "uPA [4]": {"test_system": "uPA", "test": "Zymography of cell extracts, uPA activity, BME cells", "conditions": "15 hours, serum-free", "method": "as §1, §2"}, "uPA mRNA [5]": {"test_system": "uPA mRNA", "test": "Northern blot analysis, uPA mRNA, BME cells", "conditions": "10µM, after 9 hours", "method": "(§3) (±)-8-Prenylnaringenin or genistein were added to confluent BME cell monolayers to which fresh medium containing 5% DCS had been added 24 hours previously. Total cellular RNA was prepared after the indicated times using Trizol reagent (Life Technologies AG, Basel, Switzrland) according to the manufacturer's instructions. Northern blots, UV cross-linking and methylene blue staining of filters, in vitro transcription, hybridization and post-hybridization washes were as previously described (Pepper et al., 1990, J. Cell Biol. 111: 743-755). […] Autoradiograms were scanned and quantitated using ImageQuant (Molecular Dynamics, Sunnyvale, CA).\n(§4) Replicate filters containing total cellular RNA (5 µg/lane) prepared from confluent monolayers of BME cells incubated in the absence (Control) or presence of 10µM (±)-8-prenylnaringenin for the indicated times, were hybridized with ^32P-labelled cRNA probes. RNA integrity and uniformity of loading were determined by staining the filters with methylene blue after transfer and cross-linking (lower panel of the figure); 28S and 18S ribosomal RNAs are shown."}, "tPA [6]": {"test_system": "tPA", "test": "Northern blot analysis, tPA mRNA, BAE cells", "conditions": "after 24 hours"}, "uPA [7]": {"test_system": "uPA", "test": "Zymography of cell extracts, uPA activity, BAE cells", "method": "as §1\nas §2, with “BAE” for “BME”, “(3ng/ml)” for “(10ng/ml)”, “activity). The second panel marked CE is a longer incubation of the gel shown in the top panel.” for “activity)”"}, "PAI-1 [8]": {"test_system": "PAI-1", "test": "Reverse zymography, PAI-1 activity, BAE cells", "method": "as §1\nas §2, with “BAE” for “BME”, “(3ng/ml)” for “(10ng/ml)”, “activity). The second panel marked CE is a longer incubation of the gel shown in the top panel.” for “activity)”"}, "BME cells [9]": {"test_system": "BME cells", "test": "Toxicity observed in BME cell cultures"}, "uPAR mRNA [10]": {"test_system": "uPAR mRNA", "test": "Northern blot analysis, uPAR mRNA, BAE cells", "method": "(§5) (±)-8-Prenylnaringenin or genistein were added to confluent BME cell monolayers to which fresh medium containing 5% DCS had been added 24 hours previously. Total cellular RNA was prepared after the indicated times using Trizol reagent (Life Technologies AG, Basel, Switzrland) according to the manufacturer's instructions. Northern blots, UV cross-linking and methylene blue staining of filters, in vitro transcription, hybridization and post-hybridization washes were as previously described (Pepper et al., 1990, J. Cell Biol. 111: 743-755). [^32P]-labelled cRNA probes were prepared from bovine urokinase-type plasminogen activator (u-PA) (Krätzschmar et al., 1993, Gene 125: 177-183), bovine u-PA receptor (u-PAr) (Krätzschmar et al., 1993, Gene 125: 177-183), human tissue-type PA (t-PA) (Fisher et al., 1985, J. Biol. Chem. 260: 11223-11230) and bovine PA inhibitor-1 (PAI-1) (Pepper et al., 1990, J. Cell Biol. 111: 743-755) cDNAs as previously described (Pepper et al., 1990, J. Cell Biol. 111: 743-755). Filters were exposed to Kodak X-OMAT XAR-5 Scientific Imaging Film (Eastman Kodak Co., Rochester, NY). Autoradiograms were scanned and quantitated using ImageQuant (Molecular Dynamics, Sunnyvale, CA)."}, "uPA mRNA [11]": {"test_system": "uPA mRNA", "test": "Northern blot analysis, uPA mRNA, BAE cells"}, "uPAR mRNA [12]": {"test_system": "uPAR mRNA", "test": "Northern blot analysis, uPAR mRNA, BME cells", "conditions": "10µM, after 9 hours", "method": "as §3, §4"}, "tPA mRNA": {"test_system": "tPA mRNA", "test": "Northern blot analysis, tPA mRNA, BME cells", "conditions": "10µM, after 9 hours", "method": "as §3, §4"}, "PAI-1 mRNA": {"test_system": "PAI-1 mRNA", "test": "Northern blot analysis, PAI-1 mRNA, BME cells", "method": "as §5"}, "BME cells [13]": {"test_system": "BME cells", "test": "In vitro angiogenesis assay (invasion of three-dimensional collagen gels)", "description": "bFGF and VEGF induce BME and BAE cells to invade three-dimensional collagen gels, and this is accompanied by the formation of capillary like tubular structures (Montesano et al., Proc. Natl. Acad. Sci. USA 83: 7297-7301, 1986; Pepper et al., Biochem. Biophys. Res. Comm. 189: 824-831, 1992; Pepper et al., Exp. Cell Res. 204: 356-363, 1993, Pepper et al., J. Cell Sci. 108: 73-83, 1995). In addition, bFGF and VEGF induce a synergistic invasive response in BME and BAE cells (Pepper et al., 1992, Biochem. Biophys. Res. Commun. 189: 824-831; Pepper et al 1995, J. Cell Sci. 108: 73-83).\nThree-dimensional collagen gels were prepared as described (Montesano et al., Cell 42: 469-477, 1985): 8 volumes of a solution of type I collagen from rat tail tendons (approximately 1.5mg/ml) were mixed with 1 volume of 10x minimal essential medium and 1 volume of sodium bicarbonate (11.76mg/ml) on ice, dispensed into 18mm tissue culture wells, and allowed to gel at 37 °C for 10 minutes. […] Invasion was quantitated by determining the total additive length of all cellular structures which had penetrated beneath the surface monolayer either as apparently single cells or in the form of cell cords (Pepper et al., Biochem. Biophys. Res. Comm. 189: 824-831, 1992). Results are expressed as the mean total additive sprout length in µm ± s.e.m., and are from three separate experiments per condition. […]"}, "BME cells [14]": {"test_system": "BME cells", "test": "5 day proliferation assay", "conditions": "Bos taurus; for inhibition at 30 µM: maximal inhibitory effect, read-out: % inhibition of BME cell proliferation", "method": "BME cells were seeded into gelatin-coated wells of 24 well plates at 10'000 cells per well in α-MEM supplemented with 5% DCS. 24 hours later, fresh medium was added together with 8-Prenylnaringenin at the indicated concentrations or TGF-β1 (1ng/ml), and bFGF (10ng/ml) was added to half the wells. 2 days later, medium and compounds were renewed, and after a further 3 days (i.e. 5 day assay), cells were trypsinized and counted in a FACScan Analyzer. Results are shown as % inhibition calculated from the mean of duplicate wells.\n8-Prenylnaringenin reduces endothelial cell number in a 5 day proliferation assay. BME cells were seeded into 24 well plates at 10'000 cells per well in medium containing 5% DCS. 24 hours later, cells were treated with 8-Prenylnaringenin at the indicated concentrations or with TGF-β1 (1ng/ml), and bFGF (10ng/ml) was added to half the wells. Results are shown as % inhibition calculated from the mean of duplicate wells."}},
  "note": "Like-named read-outs stand apart in the source and are kept apart here.",
  "data": [
    {"smiles": "CC(C)=CCc1c(O)cc(O)c2c1OC(c1ccc(O)cc1)CC2=O", "note": "(racemic) [8-Prenylnaringenin, 5,7-Dihydroxy-2-(4-hydroxyphenyl)-8-(3-methylbut-2-enyl)-chroman-4-on]", "values": [
      {"measurement": "tPA activity", "setting": "tPA [1]; 15 hours, serum-free", "value": "dose-dependent increase"},
      {"measurement": "induction of tPA activity, combination with VEGF", "setting": "tPA [1]; with VEGF, data not shown", "value": "synergize"},
      {"measurement": "induction of tPA activity, effect of bFGF co-treatment", "setting": "tPA [1]; with bFGF (10ng/ml)", "value": "potentiates"},
      {"measurement": "tPA activity", "setting": "tPA [2]; 15 hours, serum-free", "value": "increased"},
      {"measurement": "induction of tPA activity, effect of bFGF co-treatment", "setting": "tPA [2]; with bFGF (3ng/ml)", "value": "potentiates"},
      {"measurement": "PAI-1 activity", "setting": "PAI-1 [3]", "value": "reduction"},
      {"measurement": "uPA activity", "setting": "uPA [4]", "value": "dose-dependent increase"},
      {"measurement": "uPA mRNA steady state level, maximal effect", "setting": "uPA mRNA [5]", "value": 7.5, "unit": "fold increase"},
      {"measurement": "tPA levels", "setting": "tPA [6]", "value": 4.6, "unit": "fold increase"},
      {"measurement": "uPA activity", "setting": "uPA [7]; 15 hours, serum-free", "value": "increased"},
      {"measurement": "bFGF-induced uPA activity", "setting": "uPA [7]; with bFGF (3ng/ml)", "value": "reduces"},
      {"measurement": "PAI-1", "setting": "PAI-1 [8]", "value": "decrease"},
      {"measurement": "concentration at which frank toxicity was observed", "setting": "BME cells [9]; 15 hours, absence of serum", "value": 30, "unit": "µM"},
      {"measurement": "concentration at which toxicity was seen", "setting": "BME cells [9]; presence of 2% serum", "value": 100, "unit": "µM"},
      {"measurement": "uPAR mRNA levels", "setting": "uPAR mRNA [10]", "value": "virtually no effect"},
      {"measurement": "uPA mRNA levels", "setting": "uPA mRNA [11]", "value": "virtually no effect"},
      {"measurement": "uPAR mRNA steady state level, maximal effect", "setting": "uPAR mRNA [12]", "value": 6.4, "unit": "fold increase"},
      {"measurement": "tPA mRNA steady state level, maximal effect", "setting": "tPA mRNA", "value": 9.6, "unit": "fold increase"},
      {"measurement": "levels of PAI-1 mRNA", "setting": "PAI-1 mRNA", "value": "no significant effect"},
      {"measurement": "in vitro angiogenesis induced by bFGF, VEGF or a combination of the bFGF and VEGF", "setting": "BME cells [13]; BME cells, collagen gel", "value": "inhibits"},
      {"measurement": "IC50", "setting": "BME cells [13]; Bos taurus, induced by bFGF (10ng/ml), VEGF (30ng/ml) or both, irrespective of the angiogenic stimulus, read-out: IC50 of inhibition of BME cell invasion", "value": "3 to 10", "unit": "µM"},
      {"measurement": "inhibition at 30 µM", "setting": "BME cells [14]; absence of bFGF", "value": 67, "unit": "%"},
      {"measurement": "inhibition at 30 µM", "setting": "BME cells [14]; presence of bFGF (10ng/ml)", "value": 75, "unit": "%"},
      {"measurement": "IC50", "setting": "BME cells [14]; 120 h, 5 day assay, 5% DCS, with or without bFGF, read-out: IC50 of inhibition of BME cell proliferation (cell number)", "value": "~10", "unit": "µM"}
    ]}
  ]
}
